Reference: patent publication US20230129364A1, “PYRROLIDINE DERIVATIVE, AND PHARMACEUTICAL COMPOSITION FOR PREVENTING OR TREATING BETA-AMYLOID OR TAU PROTEIN-ASSOCIATED DISEASES CONTAINING SAME” (YONSEI UNIVERSITY, UNIVERSITY - INDUSTRY FOUNDATION (UIF), priority 2019, published 2023)

Assays:
Type in all cases: biochemical
[1] = biological target: T1, aggregated tau protein (wild-type K18) (Homo sapiens, UniProt P10636); experiment: Tau protein aggregate degradation test (thioflavin T assay); details: pre-aggregated tau, further 5 days at 37° C., ThT fluorescence vs control = 100%
T1 construct: Tau protein (wild-type K18)
Experimental: Tau protein (wild-type K18) was dissolved in phosphate-buffered saline (PBS, pH 7.4) at a concentration of 1 mg/mL to prepare a tau protein solution. 0.1 mg/mL of heparin and 100 μM dithiothreitol (DTT) were added to 1 mg/mL of the tau protein solution, followed by incubation at 37° C. for 5 days to induce tau protein aggregation. The aggregated tau protein was mixed with each test compound in an amount of 50 or 500 μM such that the final concentration reached 0.5 mg/mL, followed by further incubation at 37° C. for 5 days to induce reaction.
The degradation effect of each compound on the tau aggregates was measured by thioflavin T (ThT) assay (see Example 2). More specifically, 25 μL of the reaction solution was charged in each well of a 96-well plate for fluorescence analysis and 75 μL of the prepared thioflavin-T solution was charged in each well. The reaction was allowed to proceed at room temperature in a dark laboratory for 5 minutes and then fluorescence values were measured at an excitation wavelength of 450 nm and an emission wavelength of 485 nm using a multi-mode microplate reader.
The ratio of the fluorescence value measured in the group obtained by treating with each test compound to 100% of the fluorescence value of the group (control group) obtained by treating only with tau proteins and inducing aggregation for 5 days is set forth in Table 6 below: […]

[2] = biological target: T2, Tau protein (wild-type K18) (Homo sapiens, UniProt P10636); experiment: Tau protein aggregation inhibition test (thioflavin T assay); details: heparin/DTT-induced aggregation, 37° C. 5 days, ThT fluorescence vs tau-only control = 100%
T2 construct: Tau protein (wild-type K18)
Experimental: Tau protein (wild-type K18) was dissolved in phosphate-buffered saline (PBS, pH 7.4) at a concentration of 1 mg/mL to prepare a tau protein solution. In order to induce aggregation of tau proteins, 0.1 mg/mL of heparin and 100 μM dithiothreitol (DTT) were added to 1 mg/mL of the tau protein solution, followed by incubation at 37° C. for 5 days. At this time, the result was mixed with each test compound (50, 500 μM) such that the final concentration reached 0.5 mg/mL, followed by further incubation.
The inhibitory effect of each compound against tau aggregation was measured based on the intensity of fluorescence by thioflavin T (ThT) assay (see Example 2). More specifically, 25 μL of the reaction solution was charged in each well of a 96-well plate for fluorescence analysis, and 75 μL of the prepared thioflavin-T solution was then charged in each well. The reaction was allowed to proceed at room temperature in a dark laboratory for 5 minutes, and then fluorescence values were measured at an excitation wavelength of 450 nm and an emission wavelength of 485 nm using a multi-mode microplate reader.
The ratio of the fluorescence value measured in the group obtained by treating with each test compound to 100% of the fluorescence value of the group (control group) obtained by treating only with tau proteins and inducing aggregation for 5 days is set forth in Table 5 below: […]

[3] = biological target: T3, aggregated beta-amyloid; human Aβ 1-42 (UniProtKB-P05067, a.a. 672-713) (Homo sapiens, UniProt P05067); experiment: Beta-amyloid aggregate degradation test (thioflavin T assay); details: pre-aggregated Aβ, further 3 days at 37° C., ThT fluorescence vs control = 100%
T3 construct: UniProtKB-P05067, a.a; 672-713
Experimental: Aβ (beta-amyloid; human A3 1-42 monomer (UniProtKB-P05067, a.a. 672-713)) was dissolved at a concentration of 10 mM in dimethyl sulfoxide (DMSO), and the resulting solution was diluted to 250 μM using distilled water, and then incubated at 37° C. for 3 days to induce aggregation. The aggregated beta-amyloid was added with each test compound in an amount of 50 or 500 μM such that the final concentration reached 25 μM, and was further cultured at 37° C. for 3 days to induce reaction. The aggregate degradation effect of each test compound was measured by thioflavin T (ThT) assay (see Example 2). Specifically, 25 μL of the reaction solution was charged in each well of a 96-well plate for fluorescence analysis and 75 μL of the prepared thioflavin-T solution was charged in each well. The reaction was allowed to proceed at room temperature in a dark laboratory for 5 minutes and then fluorescence values were measured at an excitation wavelength of 450 nm and an emission wavelength of 485 nm using a multi-mode microplate reader. The ratio of the fluorescence value measured in the group obtained by treating with each test compound to 100% of the fluorescence value of the group (control group) obtained by treating only with beta-amyloids and inducing aggregation for 3 days is set forth in Table 4 below: […]

T3 sequence (P05067 672-713): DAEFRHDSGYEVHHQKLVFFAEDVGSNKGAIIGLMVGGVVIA
T1 sequence (P10636 561-685 limits assumed): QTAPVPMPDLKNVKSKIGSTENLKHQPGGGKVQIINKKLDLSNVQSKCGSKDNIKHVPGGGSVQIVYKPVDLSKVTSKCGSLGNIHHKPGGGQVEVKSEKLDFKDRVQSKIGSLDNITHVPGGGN
T2 sequence (P10636 561-685 limits assumed): as above

SMILES | ThT fluorescence remaining (% of control) ([1]; 50 uM test compound) | ThT fluorescence remaining (% of control) ([1]; 500 uM test compound) | Tau aggregation remaining (ThT fluorescence, % of tau-only control) ([2]; 500 uM test compound) | Beta-amyloid aggregate degradation activity (% of control) ([3]; 50 uM test compound) | Beta-amyloid aggregate degradation activity (% of control) ([3]; 500 uM test compound) | Tau aggregation remaining (ThT fluorescence, % of tau-only control) ([2]; 50 uM test compound)
CCN1C(=O)/C(=C/c2ccoc2)NC1=S [DN204814, (Z)-3-ethyl-5-(furan-3-ylmethylene)-2-thioxoimidazolidin-4-one] | 30.07 % of control | −22.72 % of control | 28.47 % of control | 58.02 % of control | −40.60 % of control | 
O=C1NC(=O)/C(=C/c2c[nH]c3cccnc23)S1 [DN204289, (Z)-5-((1H-pyrrolo[3,2-b]pyridin-3-yl)methylene)thiazolidine-2,4-dione] | 57.57 % of control | 52.83 % of control | 46.16 % of control | 83.66 % of control | 54.07 % of control | 60.71 % of control
O=C1NC(=S)S/C1=C\c1cc[nH]c1 [DN204297, (Z)-5-((1H-pyrrol-3-yl)methylene)-2-thioxothiazolidin-4-one] | 52.16 % of control | 17.97 % of control | 16.233 % of control | 86.80 % of control | 28.19 % of control | 48.721 % of control
CCN1C(=O)/C(=C/c2c[nH]c3ccncc23)SC1=S [DN205780, (Z)-5-((1H-pyrrolo[3,2-c]pyridin-3-yl)methylene)-3-ethyl-2-thioxothiazolidin-4-one] | 27.50 % of control | 10.84 % of control | 33.02 % of control | 51.31 % of control | 35.73 % of control | 69.83 % of control
O=C1NC(=S)S/C1=C\c1ccsc1 [DN204299, (Z)-5-(thiophen-3-ylmethylene)-2-thioxothiazolidin-4-one] | 72.21 % of control | 45.09 % of control | 33.932 % of control |  | 80.07 % of control | 60.521 % of control
CCN1C(=O)/C(=C/c2c[nH]c3ncccc23)NC1=S [DN204816, (Z)-5-((1H-pyrrolo[2,3-b]pyridin-3-yl)methylene)-3-ethyl-2-thioxoimidazolidin-4-one] | 40.39 % of control | 33.92 % of control | 56.3 % of control |  | 92.41 % of control | 81.42 % of control
O=C1NC(=S)S/C1=C\c1c[nH]c2ncccc12 [DN205355, (Z)-5-((1H-pyrrolo[2,3-b]pyridin-3-yl)methylene)-2-thioxothiazolidin-4-one] | 49.41 % of control | 30.65 % of control | 25.883 % of control | 93.80 % of control | 44.61 % of control | 40.038 % of control
O=C1NC(=S)SC1Cc1c[nH]c2ncccc12 (stereo not drawn) [DN204304, 5-((1H-pyrrolo[2,3-b]pyridin-3-yl)methyl)-2-thioxothiazolidin-4-one] | 67.53 % of control | 50.23 % of control | 39.54 % of control | 97.47 % of control | 73.11 % of control | 70.66 % of control
